Results published in patent US20260250320A1, “LIPIDATED PEPTIDE INHIBITORS OF INTERLEUKIN-23 RECEPTOR” (Janssen Pharmaceutica NV, priority 2023, published 2026).
pIC50: −log10 of the molar value. *1 amine or outer side, *2 acyl side, *3 side chain or, on linkers, in order; H or OH if unused. Where a SMILES comes first, the peptide text is derived from it. Bridges are numbered along the chain shown (N, C = ends). Roman numbers before positions name the chains, in order. Side-chain parts run from the residue outwards. [ ]: non-standard residue; d: D form. The star is where a group is joined. X35 = NCCOc1ccc(C[C@H](N[*:1])C(=O)CC(Cc2ccc3ccccc3c2)C(=O)[*:2])cc1; PEG12 = NCCOCCOCCOCCOCCOCCOCCOCCOCCOCCOCCOCCOCCC(=O)O; Trp(7-Me) = Cc1cccc2c(C[C@H](N)C(=O)O)c[nH]c12; C18 diacid = O=C(O)CCCCCCCCCCCCCCCCC(=O)*; γGlu = O=C(O)[C@H](CCC(=O)[*:2])N[*:1]; 2Nal = N[C@@H](Cc1ccc2ccccc2c1)C(=O)O; AEF = NCCOc1ccc(C[C@H](N)C(=O)O)cc1; X2 = C[N+](C)(C)C[C@@H](CC(=O)O)N*; 3Pal = N[C@@H](Cc1cccnc1)C(=O)O; Pen = CC(C)(S)[C@H](N)C(=O)O; Suc = O=C(CCC(=O)[*:2])[*:1]; Thp = NC1(C(=O)O)CCOCC1; X1 = C[N+](C)(C)CCCCC*; AEEA = NCCOCCOCC(=O)O; Sar = CNCC(=O)O

Assays:
[1] = test system: IL-23-stimulated phosphorylated STAT3 in peripheral blood mononuclear cells (PBMCs); experiment: PBMC pSTAT3 Assay; format: cell-based; conditions: PBMCs from healthy donors; 30 min preincubation with peptide; IL-23 5 ng/mL for 30 min; phospho-STAT3 by MSD
How it was run: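 Healthy-donor PBMCs expanded 4 days on anti-CD3 with 100 ng/mL IL-1β, starved ~4 h in RPMI-0.1% BSA, preincubated 30 min with peptide, then stimulated 30 min at 37 °C with 5 ng/mL IL-23. Lysate pSTAT3 measured by MSD phospho-STAT panel; IC50 derived.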

IL-23R = biological target: T1, IL-23R (Homo sapiens, UniProt Q5VWK5); experiment: IL23R Reporter Assay; format: cell-based; conditions: HEK293 cells containing IL-23R, IL-12Rβ1 and STAT-inducible firefly luciferase reporter; 10 ng/mL IL-23 (EC90); 5 h
T1 construct: HEK293 cells containing IL-23R, IL-12Rβ1 and a firefly luciferase reporter gene driven by a STAT-inducible promoter (Promega); host or cells: HEK293
T1 sequence (Q5VWK5 24-629): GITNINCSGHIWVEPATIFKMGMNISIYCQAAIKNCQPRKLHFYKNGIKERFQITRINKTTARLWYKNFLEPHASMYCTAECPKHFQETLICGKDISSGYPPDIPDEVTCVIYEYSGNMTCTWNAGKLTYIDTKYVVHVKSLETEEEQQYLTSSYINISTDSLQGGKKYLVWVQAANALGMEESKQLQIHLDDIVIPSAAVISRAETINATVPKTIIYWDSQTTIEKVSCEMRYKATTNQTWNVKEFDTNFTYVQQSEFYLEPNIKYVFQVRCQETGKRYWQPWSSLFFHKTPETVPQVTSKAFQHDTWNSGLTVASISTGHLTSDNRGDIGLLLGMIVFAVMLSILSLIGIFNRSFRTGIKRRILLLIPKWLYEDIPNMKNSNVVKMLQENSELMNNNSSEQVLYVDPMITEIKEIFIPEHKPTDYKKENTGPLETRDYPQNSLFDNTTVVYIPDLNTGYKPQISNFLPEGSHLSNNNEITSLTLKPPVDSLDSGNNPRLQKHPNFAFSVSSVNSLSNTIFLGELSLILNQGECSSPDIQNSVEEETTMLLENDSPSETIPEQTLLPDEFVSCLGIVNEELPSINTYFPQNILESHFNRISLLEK
How it was run: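 HEK293 cells carrying IL-23R, IL-12Rβ1 and a STAT-driven firefly luciferase reporter (4000 cells/well) received compound, then 10 ng/mL IL-23 solution (EC90), and were incubated for 5 h at 37° C. BioGlo luminescence was normalised to IL-23 alone (0%) and 30 μM control inhibitor (100%). IC50 came from a 4-parameter Hill fit.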

Structure (SMILES)	pIC50 [1]	pIC50 (IL-23R)
CC(=O)NCCCC[C@@H]1NC(=O)[C@H](Cc2c[nH]c3c(C)cccc23)NC(=O)[C@H]([C@@H](C)O)NC(=O)[C@H](CC(N)=O)NC(=O)[C@@H](NC(C)=O)C(C)(C)SSC(C)(C)[C@@H](C(=O)N[C@@H](Cc2ccc(OCCN)cc2)C(=O)CC(Cc2ccc3ccccc3c2)C(=O)NC2(C(=O)N[C@@H](CCC(=O)O)C(=O)N[C@@H](CC(N)=O)C(=O)N[C@@H](Cc3cccnc3)C(=O)N(C)CC(=O)N[C@@H](CCCCNC(=O)COCCOCCNC(=O)COCCOCCNC(=O)CC[C@H](NC(=O)CCCCCCCCCCCCCCCCC(=O)O)C(=O)O)C(=O)N(C)C)CCOCC2)NC1=O (stereo partly drawn) [compound 149, MeCO-Pen(3)-N-T-7MeW-K(Ac)-Pen(3)-AEF-2Nal-THP-E-N-3Pya-Sar-K(PEG2PEG2gEC18OH)-CON(Me)2] (I: Ac-[Pen]NT[Trp(7-Me)]K(Ac)[Pen] / II: [Thp]EN[3Pal][Sar]K([AEEA-AEEA-γGlu-C18 diacid])-NMe2; disulfide I:1-I:6; linker I:C-II:N via X35)	≤ 8.30	≤ 6.30
CC(=O)NCCCC[C@@H]1NC(=O)[C@H](Cc2c[nH]c3c(C)cccc23)NC(=O)[C@H]([C@@H](C)O)NC(=O)[C@H](CCCCNC(=O)COCCOCCNC(=O)COCCOCCNC(=O)CC[C@H](NC(=O)CCCCCCCCCCCCCCCCC(=O)O)C(=O)O)NC(=O)[C@@H](NC(=O)[C@@H](CCCNC(=N)N)NC(C)=O)C(C)(C)SSC(C)(C)[C@@H](C(=O)N[C@@H](Cc2ccc(OCCCCC[N+](C)(C)C)cc2)C(=O)N[C@@H](Cc2ccc3ccccc3c2)C(=O)NC2(C(=O)N[C@@H](CCC(=O)O)C(=O)N[C@@H](CC(N)=O)C(=O)N[C@@H](Cc3cccnc3)C(=O)N(C)CC(N)=O)CCOCC2)NC1=O [compound 75, MeCO-r-Pen(3)-K(PEG2PEG2gEC18OH)-T-7MeW-K(Ac)-Pen(3)-TMAPF-2Nal-THP-E-N-3Pya-Sar-CONH2] (Ac-[dR][Pen]K([AEEA-AEEA-γGlu-C18 diacid])T[Trp(7-Me)]K(Ac)[Pen]Y(X1)[2Nal][Thp]EN[3Pal][Sar]-NH2; disulfide 2-7)	> 9.30	> 7.30
CC(=O)NCCCC[C@@H]1NC(=O)[C@H](Cc2c[nH]c3c(C)cccc23)NC(=O)[C@H]([C@@H](C)O)NC(=O)[C@H](CC(N)=O)NC(=O)[C@@H](NC(=O)[C@@H](CCCNC(=N)N)NC(C)=O)C(C)(C)SSC(C)(C)[C@@H](C(=O)N[C@@H](Cc2ccc(OCCCCC[N+](C)(C)C)cc2)C(=O)N[C@@H](Cc2ccc3ccccc3c2)C(=O)NC2(C(=O)N[C@@H](CCCCNC(=O)CCOCCOCCOCCOCCOCCOCCOCCOCCOCCOCCOCCOCCNC(=O)CC[C@H](NC(=O)CCCCCCCCCCCCCCCCC(=O)O)C(=O)O)C(=O)N[C@@H](CC(N)=O)C(=O)N[C@@H](Cc3cccnc3)C(=O)N(C)CC(=O)N(C)C)CCOCC2)NC1=O [compound 123, cPEG3aCO-Pen(3)-N(N(Me)2)-T-7MeW-K(NMeAc)-Pen(3)-TMAPF-2Nal-THP-K(PEG12gEC18OH)-N-3Pya-Sar-CON(Me)2] (Ac-[dR][Pen]NT[Trp(7-Me)]K(Ac)[Pen]Y(X1)[2Nal][Thp]K([PEG12-γGlu-C18 diacid])N[3Pal][Sar]-NMe2; disulfide 2-7)	> 9.30	> 7.30
CC(=O)NCCCC[C@@H]1NC(=O)[C@H](Cc2c[nH]c3c(C)cccc23)NC(=O)[C@H]([C@@H](C)O)NC(=O)[C@H](CC(N)=O)NC(=O)[C@@H](NC(=O)[C@@H](CCCNC(=N)N)NC(C)=O)C(C)(C)SSC(C)(C)[C@@H](C(=O)N[C@@H](Cc2ccc(OCCNC(=O)CCC(=O)N[C@H](CC(=O)O)C[N+](C)(C)C)cc2)C(=O)N[C@@H](Cc2ccc3ccccc3c2)C(=O)NC2(C(=O)N[C@@H](CCCCNC(=O)COCCOCCNC(=O)COCCOCCNC(=O)CC[C@H](NC(=O)CCCCCCCCCCCCCCCCC(=O)O)C(=O)O)C(=O)N[C@@H](CC(N)=O)C(=O)N[C@@H](Cc3cccnc3)C(=O)N(C)CC(N)=O)CCOCC2)NC1=O [compound 22, MeCO-r-Pen(3)-N-T-7MeW-K(Ac)-Pen(3)-AEF(d)-2Nal-THP-K(PEG2PEG2gEC18OH)-N-3Pya-Sar-CONH2] (Ac-[dR][Pen]NT[Trp(7-Me)]K(Ac)[Pen][AEF]([Suc-X2])[2Nal][Thp]K([AEEA-AEEA-γGlu-C18 diacid])N[3Pal][Sar]-NH2; disulfide 2-7)	> 9.30	> 7.30
